Measured values: US7541020B2, “Aminoalkyl glucosaminide phosphate compounds and their use as adjuvants and immunoeffectors” (priority 1997, dated 2009)
Like-named read-outs stand apart in the source and are kept apart here.

Experiments:
influenza A/HK/68 [1] = system: influenza A/HK/68; set-up: species or system ICR mice; conditions: mouse, in vivo
influenza A/HK/68 [2] = format: in vivo, BALB/c mice; conditions: mouse, in vivo
influenza A/HK/68 [3] = system: influenza A/HK/68; set-up: species or system ICR mice; conditions: mouse, in vivo; remark: listed apart in the source
TNF-α = experiment: Cytokine induction in human whole blood ex vivo culture: TNF-α (ELISA); format: cell-based; conditions: 4 hr
Procedure: (§1) AGP compounds were solubilized in 10% EtOH-water and diluted to various concentrations. Fifty μl of each dilution were added to 450 μl of whole human blood. Controls were treated with culture media (RPMI). The reaction mixture was incubated at 37° C. for 4 hr with constant mixing on a rotator. Sterile PBS (1.5 ml) was added to the reaction mixture, the cells were centrifuged and the supernatents removed for cytokine testing. The concentration of TNF-α and IL-1β in each supernatent was determined using immunoassay ELISA kits from R&D Systems.

IL-1β = experiment: Cytokine induction in human whole blood ex vivo culture: IL-1β (ELISA); format: cell-based; conditions: 4 hr
Procedure: as §1

[4] = Fever response in rabbits (pyrogenicity); format: in vivo; conditions: 10 ug/kg; cumulative rise ≥1.5 degree in three rabbits is considered pyrogenic
Procedure: The AGP compounds were also evaluated for their tendency to induce a fever response in rabbits. Each compound was formulated in 10% (v/v) ethanol/water solution at 100 mg/ml, then diluted with D5W to the desired concentration. The material was injected at 3 ml/kg body weight into 3 rabbits. The rise in core temperature of the rabbits was recorded.

E.G7 (OVA) cells = conditions: s.c. 25 μg OVA in AGP preparation, spleen cells 21 days later
influenza A/HK/68 [5] = format: in vivo, ICR mice; conditions: mouse, in vivo
[6] = system: hepatitis B surface antigen (HBsAg); experiment: Serum anti-HBsAg antibody titers after intranasal HBsAg + AGP-AF (ELISA); format: in vivo, BALB/c mice; conditions: for Anti HBsAg Titer^−1 IgG1 / Anti HBsAg Titer^−1 IgG2a: K = 10^3
[7] = system: hepatitis B surface antigen (HBsAg); experiment: Vaginal wash anti-HBsAg antibody after intranasal HBsAg + AGP-AF; format: in vivo, BALB/c mice; conditions: 10 days after the booster immunization; intranasal HBsAg + 10 μg AGP-AF
Source text: Vaginal samples were collected 10 days after the booster immunization and assayed for anti-HBsAg antibody.

[8] = system: hepatitis B surface antigen (HBsAg); experiment: Cytotoxic T-lymphocyte response to HBsAg with AGP in stable emulsion (AGP-SE); conditions: s.c. 2.0 μg HBsAg + 25 μg AGP/SE
[9] = system: hepatitis B surface antigen (HBsAg); conditions: for % Cytotoxicity (d16, post 2°): HBsAg + 10 μg AGP-AF intranasally; for % Cytotoxicity (d8, post 3°): intranasal HBsAg + 10 μg AGP-AF
[10] = system: hepatitis B surface antigen (HBsAg); experiment: Anti-HBsAg antibody titer with AGP-SE (ELISA plates coated with HBsAg or p72 peptide); conditions: sera day 28 post 2°, 25 μg AGP-SE
[11] = day 22 post 2°, HBsAg + 10 μg AGP-AF intranasally
[12] = serum, day 21 post 3°, intranasal HBsAg + 10 μg AGP-AF
[13] = ELISA plates coated with p72 peptide

## 4-Hydroxy-(S)-3-[(R)-3-decanoyloxytetradecanoyl]butyl 2-Deoxy-4-O-phosphono-2-[(R)-3-decanoyloxytetradecanoylamino]-3-O-[(R)-3-decanoyltetradecanoyl]-β-D-glucopyranoside Triethylammonium Salt [B9]
Influenza A/HK/68 [1]
  Anti-influenza Titer^−1 Total IgG: 6400
  Percent Survival: 44%
Influenza A/HK/68 [2]
  Anti-influenza Titer^−1 IgG1: 1600
  Anti-influenza Titer^−1 IgG2a: 3200
  Anti-influenza Titer^−1 IgG2b: 800
  Anti-influenza Titer^−1 Total IgG: 1600
  Percent Survival: 87.5%
Influenza A/HK/68 [3]
  IgG Titer-1 post 1°: 6400
  IgG Titer-1 post 2°: 12,800
  Percent Survival post 1°: 80%
  Percent Survival post 2°: 50%
TNF-α; Dosage 1000 ng/ml, Table 15
  TNF-α: 145 pg/mL
TNF-α; Dosage 5000 ng/ml, Table 15
  TNF-α: 247 pg/mL
TNF-α; Dosage 10,000 ng/ml, Table 15
  TNF-α: 449 pg/mL
IL-1β; Dosage 1000 ng/ml, Table 15
  IL-1β: 53 pg/mL
IL-1β; Dosage 5000 ng/ml, Table 15
  IL-1β: 84 pg/mL
IL-1β; Dosage 10,000 ng/ml, Table 15
  IL-1β: 96 pg/mL
[4]
  PYROGENICITY Total Rise ° C., 3 rabbits: 3.1 °C
E.G7 (OVA) cells; E:T 12.5:1
  % Cytotoxicity: 36%
E.G7 (OVA) cells; E:T 25:1
  % Cytotoxicity: 55%
E.G7 (OVA) cells; E:T 50:1
  % Cytotoxicity: 65%

## N-[(R)-3-decanoyloxytetradecanoyl]-O-[2-deoxy-4-O-phosphono-2-[(R)-3-decanoyloxytetradecanoylamino]-3-O-[(R)-3-decanoyloxytetradecanoyl]-β-D-glucopyranosyl]-D-serine Triethylammonium Salt [B14]
Influenza A/HK/68 [1]
  Anti-influenza Titer^−1 Total IgG: 6400
  Percent Survival: 44%
Influenza A/HK/68 [2]
  Anti-influenza Titer^−1 IgG1: 6400
  Anti-influenza Titer^−1 IgG2a: 3200
  Anti-influenza Titer^−1 IgG2b: 6400
  Anti-influenza Titer^−1 Total IgG: 3200
  Percent Survival: 87.5%
Influenza A/HK/68 [3]
  IgG Titer-1 post 1°: 800
  IgG Titer-1 post 2°: 51,200
  Percent Survival post 1°: 33%
  Percent Survival post 2°: 70%
Influenza A/HK/68 [5]
  Percent Survival: 30%
  Titer^−1 IgG1: 1600
  Titer^−1 IgG2a: 100
  Titer^−1 IgG2b: 400
  Titer^−1 Total IgG: 800
TNF-α; Dosage 500 ng/ml, Table 17
  TNF-α: 49 pg/mL
TNF-α; Dosage 1000 ng/ml, Table 16
  TNF-α: 56 pg/mL
TNF-α; Dosage 1000 ng/ml, Table 17
  TNF-α: 51 pg/mL
TNF-α; Dosage 5000 ng/ml, Table 16
  TNF-α: 120 pg/mL
TNF-α; Dosage 5000 ng/ml, Table 17
  TNF-α: 87 pg/mL
TNF-α; Dosage 10,000 ng/ml, Table 16
  TNF-α: 249 pg/mL
TNF-α; Dosage 10,000 ng/ml, Table 17
  TNF-α: 114 pg/mL
IL-1β; Dosage 500 ng/ml, Table 17
  IL-1β: 19.9 pg/mL
IL-1β; Dosage 1000 ng/ml, Table 16
  IL-1β: 46 pg/mL
IL-1β; Dosage 1000 ng/ml, Table 17
  IL-1β: 10.0 pg/mL
IL-1β; Dosage 5000 ng/ml, Table 16
  IL-1β: 71 pg/mL
IL-1β; Dosage 5000 ng/ml, Table 17
  IL-1β: 19.0 pg/mL
IL-1β; Dosage 10,000 ng/ml, Table 16
  IL-1β: 91 pg/mL
IL-1β; Dosage 10,000 ng/ml, Table 17
  IL-1β: 24.6 pg/mL
E.G7 (OVA) cells; E:T 12.5:1
  % Cytotoxicity: 25%
E.G7 (OVA) cells; E:T 25:1
  % Cytotoxicity: 36%
E.G7 (OVA) cells; E:T 50:1
  % Cytotoxicity: 45%

## 3-Hydroxy-(S)-2-[(R)-3-nonanoyloxytetradecanoylamino]propyl 2-Deoxy-4-O-phosphono-2-[(R)-3-nonanoyloxytetradecanoylamino]-3-O-[(R)-3-nonanoyloxytetradecanoyl]-β-D-glucopyranoside Triethylammonium Salt [B7]
Influenza A/HK/68 [1]
  Anti-influenza Titer^−1 Total IgG: 200
Influenza A/HK/68 [3]
  IgG Titer-1 post 1°: 3200
  IgG Titer-1 post 2°: >102,400
  Percent Survival post 1°: 60%
  Percent Survival post 2°: 60%
Influenza A/HK/68 [5]
  Titer−1 IgG1: 3200
  Titer−1 IgG2a: 100
  Titer−1 IgG2b: 1600
  Titer−1 Total IgG: 3200
[4]
  PYROGENICITY Total Rise ° C., 3 rabbits: 4 °C
E.G7 (OVA) cells; E:T 12.5:1
  % Cytotoxicity: 29%
E.G7 (OVA) cells; E:T 25:1
  % Cytotoxicity: 44%
E.G7 (OVA) cells; E:T 50:1
  % Cytotoxicity: 57%

## 3-Hydroxy-(S)-2-[(R)-3-dodecanoyloxytetradecanoylamino]propyl 2-Deoxy-4-O-phosphono-2-[(R)-3-dodecanoyloxytetradecanoylamino]-3-O-[(R)-3-dodecanoyloxytetradecanoyl]-β-D-glucopyranoside Triethylammonium Salt [B3]
Influenza A/HK/68 [1]
  Percent Survival: 33%
Influenza A/HK/68 [2]
  Anti-influenza Titer^−1 IgG1: 3200
  Anti-influenza Titer^−1 IgG2b: 800
  Anti-influenza Titer^−1 Total IgG: 3200
  Percent Survival: 87.5%
Influenza A/HK/68 [3]
  IgG Titer-1 post 1°: 3200
  IgG Titer-1 post 2°: 102,400
  Percent Survival post 1°: 70%
  Percent Survival post 2°: 60%
Influenza A/HK/68 [5]
  Percent Survival: 0%
  Titer−1 IgG2a: 50
  Titer−1 IgG2b: 800
[6]; [11]
  Anti HBsAg Titer^−1 IgA: 6,400
  Anti HBsAg Titer^−1 IgG1: 1000K
  Anti HBsAg Titer^−1 IgG2a: 500K
[6]; [12]
  Anti HBsAg Titer^−1 IgG1: 1000K
  Anti HBsAg Titer^−1 IgG2a: 1000K
  Anti HBsAg Titer^−1 IgA: 25,600
[7]
  Vaginal Wash Anti-HBsAg Titer^−1 IgA: 1600
  Vaginal Wash Anti-HBsAg Titer^−1 IgG: 800
[8]; d16, post 2°, E:T 6.25:1
  % Cytotoxicity: 22%
[8]; d16, post 2°, E:T 12.5:1
  % Cytotoxicity: 32%
[8]; d16, post 2°, E:T 25:1
  % Cytotoxicity: 47%
[8]; d16, post 2°, E:T 50:1
  % Cytotoxicity: 81%
[8]; d17, post 1°, E:T 6.25:1
  % Cytotoxicity: 5%
[8]; d17, post 1°, E:T 12.5:1
  % Cytotoxicity: 9%
[8]; d17, post 1°, E:T 25:1
  % Cytotoxicity: 15%
[8]; d17, post 1°, E:T 50:1
  % Cytotoxicity: 28%
[4]
  PYROGENICITY Total Rise ° C., 3 rabbits: 4.2 °C
E.G7 (OVA) cells; E:T 12.5:1
  % Cytotoxicity: 42%
E.G7 (OVA) cells; E:T 25:1
  % Cytotoxicity: 54%
E.G7 (OVA) cells; E:T 50:1
  % Cytotoxicity: 65%
[9]; E/T 6.25:1
  % Cytotoxicity (d16, post 2°): 11%
  % Cytotoxicity (d8, post 3°): 20%
[9]; E/T 12.5:1
  % Cytotoxicity (d16, post 2°): 17%
  % Cytotoxicity (d8, post 3°): 32%
[9]; E/T 25:1
  % Cytotoxicity (d16, post 2°): 26%
  % Cytotoxicity (d8, post 3°): 45%
[9]; E/T 50:1
  % Cytotoxicity (d16, post 2°): 43%
  % Cytotoxicity (d8, post 3°): 54%
[10]; ELISA plates coated with HBsAg
  Anti-HBsAg Titer^−1 HBsAg IgG1: 512K
  Anti-HBsAg Titer^−1 HBsAg IgG2a: 1024K
[10]; [13]
  Anti-HBsAg Titer^−1 p72-Peptide IgG1: 16K
  Anti-HBsAg Titer^−1 p72-Peptide IgG2a: 128K

## 4-Hydroxy-(S)-2-[(R)-3-decanoyloxytetradecanoyl]butyl 2-Deoxy-4-O-phosphono-2-[(R)-3-decanoyloxytetradecanoylamino]-3-O-[(R)-3-decanoyltetradecanoyl]-β-D-glucopyranoside Triethylammonium Salt [B10]
Influenza A/HK/68 [1]
  Anti-influenza Titer^−1 Total IgG: 1600
  Percent Survival: 40%
Influenza A/HK/68 [2]
  Anti-influenza Titer^−1 IgG1: 400
  Anti-influenza Titer^−1 IgG2a: 400
  Anti-influenza Titer^−1 IgG2b: 400
  Anti-influenza Titer^−1 Total IgG: 400
  Percent Survival: 62.5%
Influenza A/HK/68 [3]
  IgG Titer-1 post 1°: 1600
  IgG Titer-1 post 2°: 25,600
  Percent Survival post 1°: 60%
  Percent Survival post 2°: 90%
TNF-α; Dosage 1000 ng/ml, Table 15
  TNF-α: 73 pg/mL
TNF-α; Dosage 5000 ng/ml, Table 15
  TNF-α: 127 pg/mL
TNF-α; Dosage 10,000 ng/ml, Table 15
  TNF-α: 207 pg/mL
IL-1β; Dosage 1000 ng/ml, Table 15
  IL-1β: 17 pg/mL
IL-1β; Dosage 5000 ng/ml, Table 15
  IL-1β: 61 pg/mL
IL-1β; Dosage 10,000 ng/ml, Table 15
  IL-1β: 43 pg/mL
[4]
  PYROGENICITY Total Rise ° C., 3 rabbits: 5.8 °C
E.G7 (OVA) cells; E:T 12.5:1
  % Cytotoxicity: 38%
E.G7 (OVA) cells; E:T 25:1
  % Cytotoxicity: 56%
E.G7 (OVA) cells; E:T 50:1
  % Cytotoxicity: 65%
